Test results as given in the NIST ThermoML archive (doi:10.1016/j.jct.2012.09.011).

Test: cn = amount concentration of the nth substance listed, in mol/dm3
Details: 310.15 K, 101 kPa, Liquid, Taylor dispersion method

[Cl][Cd][Cl] [cadmium chloride] + O
Details | binary diffusion coefficient [m2/s]
c1 = 0 | 1.39e-09
c1 = 0.001 | 1.34e-09
c1 = 0.003 | 1.32e-09
c1 = 0.005 | 1.28e-09
c1 = 0.008 | 1.28e-09
c1 = 0.01 | 1.28e-09
c1 = 0.05 | 1.2e-09
c1 = 0.1 | 1.2e-09
c1 = 0.4 | 1.26e-09
